The values that follow come from US9611254B2, “Triazole compounds and their use as gamma secretase modulators” (Acturum Life Science AB, priority 2013, dated 2017).

Test [1] deals with Aβ42. The experiment in a line: HEK assay: Aβ42 secreted by HEK cells stably expressing APPswe (Meso Scale electrochemiluminescence). In kind it is cell-based, Human. The settings on record: 4-6 hours incubation with compound, Aβ42 in cell medium; for IC50: Homo sapiens, HEK293, HEK cell line stably expressing APPswe, read-out: pIC50 Aβ42 HEK assay (converted). Here is the method: Compounds were diluted in 100% DMSO and stored at […] prior to use. Human Embryonic Kidney (HEK) cell line stably expressing APP with the Swedish mutation (APPswe) was cultured using Dulbecco's Modified Eagles medium (DMEM) supplied with […] glucose, Na-pyruvate and GlutaMAX, 10% Foetal bovine serum, 100 U/mL penicillin-streptomycin (PEST), 1× non-essential amino acids (NEAA), […] Hepes, 100 μg/mL Zeocine. Cells at about 80% confluence were washed with PBS, detached from culture flasks using 1× Trypsin/EDTA diluted in PBS, re-suspended in cell media and plated in 384-well poly-d-lysine coated cell culture plates at about 10000-15000 cells/well, in 25 μL cell media. Optionally, cryo-preserved cells (frozen and stored at −140° C. in 90% cell media and 10% DMSO) were thawed, washed and plated as above. Next the cells were incubated for 15-24 h at 37° C. and 5% CO2, after which cell medium was changed. Fresh medium containing test compound diluted ×200 from prepared compound plate was added to the cells before further incubation for 4-6 hours at 37° C. and 5% CO2. After incubation with test compound the amount of Aβ peptides, including Aβ42, Aβ40, Aβ39, Aβ38 and Aβ37, secreted to cell medium was analyzed using the electrochemiluminescence assay technology from Meso Scale Discovery Technology, in combination with specific antibodies raised against the different Aβ peptides. Potential cytotoxic effects of the compounds were assayed by measuring the ATP content (ViaLight) from cell lysate.

For test [2], the system named is Aβ42. Briefly: PCN assay: Aβ42 secreted by mouse primary cortical neuronal cells (ELISA). In kind it is cell-based. The settings on record: primary cortical neuronal cells from 16-day mouse embryos, 16-20 hours incubation with compound, Aβ42 in cell medium; for IC50: Mus musculus, read-out: pIC50 Aβ42 PCN assay (converted). Here is the method: Compounds were diluted in 100% DMSO and stored at […] prior to use. Primary cortical neuronal cells (PCN) were isolated from 16-day mouse embryos and cultured in Ham's F12 media containing 10% Foetal bovine serum, 10 mM Hepes, 2 mM L-glutamine and 100 U/mL Penicillin-Streptomycin. 150000-250000 cells/well, in 200 μL cell media were seeded onto 96-well poly-D-Lysine coated plates. After incubation at 37° C., 5% CO2 for five days, the media was exchanged for fresh medium containing test compound diluted ×100, before further incubation for 16-20 hours at 37° C. and 5% CO2. After incubation with test compound the amount of Aβ42 peptides secreted to cell medium was analyzed using the solid phase sandwich Enzyme-Linked-Immuno-Sorbent Assay (ELISA)-kit from Invitrogen for detection of mouse βAmyloid 1-42. Potential cytotoxic effects of the compounds were assayed by measuring the ATP content (Via Light) from cell lysate.
A general note: In an ELISA, binding on a coated surface is turned into a signal by an enzyme label.

Take `COc1cc(Nc2nc(N3CCC3c3ccccc3)n(CC(C)(C)O)n2)ccc1-n1cnc(C)c1` (racemic) [Example 5, 1-(3-(3-Methoxy-4-(4-methyl-1H-imidazol-1-yl)phenylamino)-5-(2-phenylazetidin-1-yl)-1H-1,2,4-triazol-1-yl)-2-methylpropan-2-ol]: the values for the IC50 in the test on Aβ42 [1] and in the test on Aβ42 [2] were 25.1 nM and 31.6 nM, respectively.
In the case of `COc1cc(Nc2nc(N3CCC3c3ccccc3)n(CC(C)(C)O)n2)ccc1-n1cnc(C)c1` (single isomer, unassigned; isomer 1) [Example 6, 1-(3-(3-Methoxy-4-(4-methyl-1H-imidazol-1-yl)phenylamino)-5-(2-phenylazetidin-1-yl)-1H-1,2,4-triazol-1-yl)-2-methylpropan-2-ol, isomer 1], the IC50 in the test on Aβ42 [1] was 25.1 nM. In the test on Aβ42 [2], the “pIC50 Aβ42 PCN assay” value worked out at 7.2.
With `COc1cc(Nc2nc(N3CCC3c3ccccc3)n(CC(C)(C)O)n2)ccc1-n1cnc(C)c1` (single isomer, unassigned; isomer 2) [Example 7, 1-(3-(3-Methoxy-4-(4-methyl-1H-imidazol-1-yl)phenylamino)-5-(2-phenylazetidin-1-yl)-1H-1,2,4-triazol-1-yl)-2-methylpropan-2-ol, isomer 2], the “pIC50 Aβ42 HEK assay” value with Aβ42 [1] (HEK cell line stably expressing APPswe) amounted to 7.8. In the test on Aβ42 [2], the “pIC50 Aβ42 PCN assay” value came to 7.7.
Take `COc1cc(Nc2nc(N3CC(c4ccccc4)C3)n(CC(C)(C)O)n2)ccc1-n1cnc(C)c1` [Example 1, 1-(3-(3-Methoxy-4-(4-methyl-1H-imidazol-1-yl)phenylamino)-5-(3-phenylazetidin-1-yl)-1H-1,2,4-triazol-1-yl)-2-methylpropan-2-ol]: the IC50 was 39.8 nM in the test on Aβ42 [1] and 15.8 nM with Aβ42 [2].
Regarding `COc1cc(Nc2nc(N3CC(F)(c4ccccc4)C3)n(CC(C)(C)O)n2)ccc1-n1cnc(C)c1` [Example 2, 1-(5-(3-Fluoro-3-phenylazetidin-1-yl)-3-(3-methoxy-4-(4-methyl-1H-imidazol-1-yl)phenylamino)-1H-1,2,4-triazol-1-yl)-2-methylpropan-2-ol], the IC50 with Aβ42 [1] is 50.1 nM; in the test on Aβ42 [2], 31.6 nM.
In the case of `COc1cc(Nc2nc(N3CC(c4ccccc4)C3)n(C)n2)ccc1-n1cnc(C)c1` [Example 3, N-(3-Methoxy-4-(4-methyl-1H-imidazol-1-yl)phenyl)-1-methyl-5-(3-phenylazetidin-1-yl)-1H-1,2,4-triazol-3-amine], the IC50 with Aβ42 [1] was 39.8 nM; in the test on Aβ42 [2], 79.4 nM.
`COc1cc(Nc2nc(N3CCC3c3ccccc3)n(C)n2)ccc1-n1cnc(C)c1` (stereo not drawn) [Example 4, N-(3-Methoxy-4-(4-methyl-1H-imidazol-1-yl)phenyl)-1-methyl-5-(2-phenylazetidin-1-yl)-1H-1,2,4-triazol-3-amine]: the IC50 with Aβ42 [1] and in the test on Aβ42 [2] was 25.1 nM throughout.
As to `COc1cc(Nc2nc(N3CC4(CCC4)C3)n(CC(C)(C)O)n2)ccc1-n1cnc(C)c1` [Example 8, 1-(3-(3-Methoxy-4-(4-methyl-1H-imidazol-1-yl)phenylamino)-5-(2-azaspiro[3.3]heptan-2-yl)-1H-1,2,4-triazol-1-yl)-2-methylpropan-2-ol], the IC50 was 50.1 nM in the test with Aβ42 [1] and 63.1 nM in the test with Aβ42 [2].
The matching figures for `COc1cc(Nc2nc(N3CCC34CCCC4)n(CC(C)(C)O)n2)ccc1-n1cnc(C)c1` [Example 9, 1-(3-(3-Methoxy-4-(4-methyl-1H-imidazol-1-yl)phenylamino)-5-(1-azaspiro[3.4]octan-1-yl)-1H-1,2,4-triazol-1-yl)-2-methylpropan-2-ol]: 31.6 nM and 31.6 nM.
